Laboratory results taken from US20090088412A1, “COMPOSITION FOR TREATING CANCER CELLS AND PREPARATION METHOD THEREOF” (KAOHSIUNG MEDICAL UNIVERSITY, priority 2007, published 2009).
Converted amounts (≈) assume the structure as drawn.

Key:
[1] = test system: MDA-MB-231; assay: MTT cytotoxicity test, MDA-MB-231; format: cell-based, human; conditions: breast cancer cell line, 72 hours
Method: (§1) The bioactivities of the 25 new withanolide compounds of the present invention are further studied. The bioactivities are measured by examining cytotoxicity tests with 5 human cancer cell lines, including MCF-7 and MDA-MB-231 (which are the breast cancer cell lines), Hep G2 and Hep 3B (which are the liver cancer cell line), and A549 (which is lung cancer cell line). In addition, a normal human lung cell line (MRC-5) is served as the control group. All human cancer cell lines come from the American Type Culture Collection. The respective cell lines are cultured in RPMI-1640 medium with 10% (v/v) fetal calf serum, 100 U/ml penicillin and 100 µg/ml streptomycin, and incubated at 37° C. in 5% CO2 atmosphere.
(§2) In the present invention, the cytotoxicity tests are performed with MTT (3-(4,5-dimethyl-thiazol-2-yl)-2,5-diphenyl tetrazolium bromide) method. The five cancer cell lines and the normal cell line (MRC-5) are firstly incubated in a 96-well culture dish with concentrations of 5,000˜10,000 cells/well. In Day 2, the respective incubated cells are added with the withanolide compounds of the present invention and Doxorubicin and are incubated for additional 72 hours. Afterwards, the incubated cells are examined with the MTT method including steps of dissolving the incubated cells in DMSO, and determining the absorbance of each cell line to each compound by a microplate reader in 550 nm to evaluate the cytotoxicity of each compound to each cell line. […] The IC50 represents the concentration of the compound that is required for 50% inhibition of the cell growth, and Doxorubicin serves as the positive control group.

[2] = test system: Hep 3B; assay: MTT cytotoxicity test, Hep 3B; format: cell-based, human; conditions: liver cancer cell line, 72 hours
Method: as §1, §2

[3] = test system: A-549; assay: MTT cytotoxicity test, A-549; format: cell-based, human; conditions: lung cancer cell line, 72 hours
Method: as §1, §2

[4] = test system: MCF-7; assay: MTT cytotoxicity test, MCF-7; format: cell-based, human; conditions: breast cancer cell line, 72 hours
Method: as §1, §2

[5] = test system: Hep G2; assay: MTT cytotoxicity test, Hep G2; format: cell-based, human; conditions: liver cancer cell line, 72 hours
Method: as §1, §2

[6] = test system: MRC-5; assay: MTT cytotoxicity test, normal lung cell line MRC-5; format: cell-based; conditions: normal human lung cell line, 72 hours
Method: as §1, §2

## CC1=C(C)C(=O)O[C@@H]([C@@H](C)[C@@]2(C)C3=C(C[C@H]2O)[C@@H]2C[C@H]4O[C@]45[C@@H](O)C(O)CC(=O)[C@]5(C)[C@H]2CC3)C1 (stereo partly drawn) [Compound 3, Tubocapsenolide C]
[1]
  IC50 MDA-MB-231: >20 µg/mL
[2]
  IC50 Hep 3B: >20 µg/mL
[3]
  IC50 A-549: 7.06 µg/mL (≈ 14.5 µM)
[4]
  IC50 MCF-7: >20 µg/mL
[5]
  IC50 Hep G2: 15.93 µg/mL (≈ 32.7 µM)

## CCCCOC1CC(=O)[C@]2(C)[C@H]3CCC4=C(C[C@@H](O)[C@@]4(C)[C@H](C)[C@H]4CC(C)=C(C)C(=O)O4)[C@@H]3C[C@H]3O[C@]32[C@H]1O (stereo partly drawn) [Compound 5, Tubocapsenolide E]
[1]
  IC50 MDA-MB-231: 17.50 µg/mL (≈ 32.2 µM)
[2]
  IC50 Hep 3B: 13.20 µg/mL (≈ 24.3 µM)
[3]
  IC50 A-549: 15.94 µg/mL (≈ 29.4 µM)
[4]
  IC50 MCF-7: >20 µg/mL
[5]
  IC50 Hep G2: 12.31 µg/mL (≈ 22.7 µM)

## CC1=C(C)C(=O)O[C@@H]([C@@H](C)[C@@]2(C)C3=C(C[C@H]2O)[C@@H]2C[C@H](O)[C@]4(O)[C@@H](O)C=CC(=O)[C@]4(C)[C@H]2CC3)C1 [Compound 6, Tubocapsenolide F]
[1]
  IC50 MDA-MB-231: 8.41 µg/mL (≈ 17.3 µM)
[2]
  IC50 Hep 3B: 15.07 µg/mL (≈ 31 µM)
[3]
  IC50 A-549: 6.04 µg/mL (≈ 12.4 µM)
[4]
  IC50 MCF-7: 14.71 µg/mL (≈ 30.2 µM)
[5]
  IC50 Hep G2: >20 µg/mL

## CC1=C(C)C(=O)O[C@@H]([C@@H](C)[C@@]2(C)C3=C(C[C@H]2O)[C@@H]2C[C@H](Cl)[C@]4(O)[C@@H](O)C=CC(=O)[C@]4(C)[C@H]2CC3)C1 [Compound 7, Tubocapsenolide G]
[1]
  IC50 MDA-MB-231: >20 µg/mL
[2]
  IC50 Hep 3B: >20 µg/mL
[3]
  IC50 A-549: 19.94 µg/mL (≈ 39.5 µM)
[4]
  IC50 MCF-7: >20 µg/mL
[5]
  IC50 Hep G2: 19.12 µg/mL (≈ 37.9 µM)

## CC1=C(C)C(=O)O[C@@H]([C@@H](C)[C@@]23O[C@@H]2C[C@H]2[C@@H]4C[C@H]5O[C@]56[C@@H](O)C=CC(=O)[C@]6(C)[C@H]4CC[C@@]23C)C1 [Compound 8, Tubocapsanolide A]
[1]
  IC50 MDA-MB-231: 0.22 µg/mL (≈ 0.469 µM)
[2]
  IC50 Hep 3B: 0.42 µg/mL (≈ 0.896 µM)
[3]
  IC50 A-549: 0.47 µg/mL (≈ 1 µM)
[4]
  IC50 MCF-7: 1.47 µg/mL (≈ 3.14 µM)
[6]
  IC50 MRC-5: 0.73 µg/mL (≈ 1.56 µM)
[5]
  IC50 Hep G2: 0.86 µg/mL (≈ 1.84 µM)

## CC1=C(C)C(=O)O[C@@H]([C@](C)(O)[C@@]23O[C@@H]2C[C@H]2[C@@H]4C[C@H]5O[C@]56[C@@H](O)C=CC(=O)[C@]6(C)[C@H]4CC[C@@]23C)C1 [Compound 9, 20-Hydroxytubocapsanolide A]
[1]
  IC50 MDA-MB-231: 0.99 µg/mL (≈ 2.04 µM)
[2]
  IC50 Hep 3B: 0.99 µg/mL (≈ 2.04 µM)
[3]
  IC50 A-549: 1.42 µg/mL (≈ 2.93 µM)
[4]
  IC50 MCF-7: 1.77 µg/mL (≈ 3.65 µM)
[6]
  IC50 MRC-5: 1.36 µg/mL (≈ 2.81 µM)
[5]
  IC50 Hep G2: 0.73 µg/mL (≈ 1.51 µM)

## CC1=C(C)[C@H](O)[C@H]([C@@H](C)[C@@]23O[C@@H]2C[C@H]2[C@@H]4C[C@H]5O[C@]56[C@@H](O)C=CC(=O)[C@]6(C)[C@H]4CC[C@@]23C)OC1=O [Compound 10, 23-Hydroxytubocapsanolide A]
[1]
  IC50 MDA-MB-231: 1.19 µg/mL (≈ 2.46 µM)
[2]
  IC50 Hep 3B: 0.49 µg/mL (≈ 1.01 µM)
[3]
  IC50 A-549: 0.79 µg/mL (≈ 1.63 µM)
[4]
  IC50 MCF-7: 2.05 µg/mL (≈ 4.23 µM)
[6]
  IC50 MRC-5: 0.90 µg/mL (≈ 1.86 µM)
[5]
  IC50 Hep G2: 0.44 µg/mL (≈ 0.908 µM)

## CC1=C(C)C(=O)O[C@@H]([C@@H](C)[C@@]2(O)CC[C@H]3[C@@H]4C[C@H](O)[C@]5(O)[C@@H](O)C=CC(=O)[C@]5(C)[C@H]4CC[C@@]32C)C1 [Compound 13, Tubocapsanolide D]
[1]
  IC50 MDA-MB-231: 13.49 µg/mL (≈ 27.6 µM)
[2]
  IC50 Hep 3B: 7.19 µg/mL (≈ 14.7 µM)
[3]
  IC50 A-549: 8.01 µg/mL (≈ 16.4 µM)
[4]
  IC50 MCF-7: >20 µg/mL
[5]
  IC50 Hep G2: >20 µg/mL

## CC1=C(C)C(=O)O[C@@H]([C@@H](C)[C@@]2(O)CC[C@H]3[C@@H]4C[C@H]5O[C@]56[C@@H](O)C=CC(=O)[C@]6(C)[C@H]4CC[C@@]32C)C1 [Compound 14, Tubocapsanolide F]
[1]
  IC50 MDA-MB-231: 0.99 µg/mL (≈ 2.1 µM)
[2]
  IC50 Hep 3B: 0.80 µg/mL (≈ 1.7 µM)
[3]
  IC50 A-549: 0.88 µg/mL (≈ 1.87 µM)
[4]
  IC50 MCF-7: 1.98 µg/mL (≈ 4.21 µM)
[6]
  IC50 MRC-5: 0.81 µg/mL (≈ 1.72 µM)
[5]
  IC50 Hep G2: 0.64 µg/mL (≈ 1.36 µM)

## COC1CC(=O)[C@]2(C)[C@H]3CC[C@@]4(C)[C@@H](CC[C@]4(O)[C@H](C)[C@H]4CC(C)=C(C)C(=O)O4)[C@@H]3C[C@H]3O[C@]32[C@H]1O (stereo partly drawn) [Compound 15, Tubocapsanolide G]
[1]
  IC50 MDA-MB-231: >20 µg/mL
[2]
  IC50 Hep 3B: >20 µg/mL
[3]
  IC50 A-549: >20 µg/mL
[4]
  IC50 MCF-7: >20 µg/mL
[5]
  IC50 Hep G2: 17.55 µg/mL (≈ 34.9 µM)
